According to patent publication US20180371422A1, “NON-VIRAL IPSCS INDUCING METHOD, COMPOSITIONS, KITS AND IPSCS” (Guangzhou Biocare Biotechnology Co., Ltd, priority 2016, published 2018):
Where a name gives a salt, the structure may show the parent alone.

Tested on: urine-derived renal epithelial cells
Assay: AP staining, efficiency of AP positive clones (iPSCs induction)
Format: cell-based, human
Conditions: Example 5; day 0 to day 8 of induction culture; FIG. 11-12
Experimental: 1. The procedure for AP staining is as follows,
a) Aspirate and remove the growth medium from the cultures to be stained when the cell culture is finished, wash the culture with 1×PBS one time; Fix the cells with 4% paraformaldehyde at room temperature for 2 min;
b) Aspirate the fixing solution, wash the culture with 1×TBST for 3 times; Balance with AP buffer at room temperature for 5 min;
c) Chromogenic reaction was performed with AP chromogenic reagent at room temperature in dark for 15 min (5-15 min, terminated when the color of clones became darker and without background, increase the reaction time appropriately if the clones were not stained). The chromogenic reagent was aspirated, cells were washed with 1×PBS for two times, covered with an appropriate amount of 1×PBS, observed and counted under a microscope.
Alkaline phosphatase (AP) is a phosphomonoesterase. The alkaline phosphatase in the cytoplasm can hydrolyze sodium naphthol phosphate to produce α-naphthol in alkaline environments. The latter reacts with a stable azo salt and presents a deep purple color, which the presence of alkaline phosphatase and the abundance of expression could be determined accordingly. Alkaline phosphatase is highly expressed in undifferentiated pluripotent stem cells, and the activity of alkaline phosphatase in the differentiated pluripotent stem cells is decreased. Therefore, whether the cells are clones of iPSCs could be determined by alkaline phosphatase staining (AP staining). And, thus the efficiency of iPSCs production can be easily judged according to the efficiency of AP positive clones.
a) Electroporation transformation: The recombinant plasmids obtained in step 1) were added into the culture of renal epithelial cells after digestion with trypsin, and then transferred into the renal epithelial cells. After electroporation, the cells were seeded on a cell culture plate coated with extracellular matrix;
b) Induction culture: 1-3 days after Step 1), or when the cells reached a confluence of 30% or more, the culture medium of pluripotent stem cell was used to continue induction culture. About 15-30 days after the mature of iPSCs clones, the positive clones of iPSCs were identified by AP staining, and the efficiency of AP positive clones was calculated accordingly;

Q: With Cc1c[nH]c(-c2cnc(NCCNc3ccc(C#N)cn3)nc2-c2ccc(Cl)cc2Cl)n1 [CHIR-99021] as the compound, how does the “preferable concentration for promoting cell reprogramming (AP staining)” value (“preferable concentration” for short) read?
A: The value was 3 µM.

Q: For CCCC(=O)[O-].[Na+] [sodium butyrate, Sodium Butyrate], which “preferable concentration” value is on record?
A: Its value is 0.25 µM.

Q: How did the “preferable concentration” value turn out when N[C@@H]1C[C@H]1c1ccccc1 [tranylcypromine hydrochloride, Tranylcypromine hydrochloride] was run?
A: Its value is 2 µM.

Q: With O=C(NOC[C@H](O)CO)c1ccc(F)c(F)c1Nc1ccc(I)cc1F [PD0325901] as the compound, how does the “preferable concentration” value read?
A: The value was 0.5 µM.
